Data from US20060018970A1, “Enoximone formulations and their use in the treatment of cardiac hypertrophy and heart failure” (Myogen, Inc., priority 2003, published 2006).
Read-outs that look alike come from different tables or passages of the source.

What was measured:
[1] = system: type-III phosphodiesterase (PDE-III); details: cited from earlier work
[2] = system: patients with the most advanced stage of chronic heart failure dependent on intravenous inotrope therapy; details: cited from earlier work
clinical [3] = details: human, plasma
clinical [4] = details: human, in vivo, plasma concentration
[5] = Solubility in the physiological pH range; type: physicochemical; details: data unpublished

CSc1ccc(C(=O)c2[nH]c(=O)[nH]c2C)cc1 [enoximone, 1,3-Dihydro-4-methyl-5-[4-(methylthio)benzoyl]-2H-imidazol-2-one]
inhibition of type-III phosphodiesterase [1]: highly selective inhibition
time to death or re-initiation of i.v. inotrope therapy ([2]; 60-day (p=0.012), 75-day (p=0.016) and 90-day (p=0.041) periods): benefit in favor of enoximone versus placebo
time to death or re-initiation of i.v. inotrope therapy ([2]; 182-day period (p=0.188)): not
mean total days on i.v. inotrope therapy over the course of the study ([2]; placebo 49 days, p=0.049): 28 days
concentration at 0.5 h (clinical [3]; 25 mg, Patient 4, dose 25 mg): 23.7 ng/mL
concentration at 2 h (clinical [3]; 25 mg, Patient 4, dose 25 mg, 2 HR): 63.6 ng/mL
concentration at 0 h (clinical [3]; 25 mg, Patient 4, dose 25 mg, PREDOSE): 18.6 ng/mL
concentration at 2 h (clinical [3]; 50 mg, Max, 2 hrs, after dosing of enoximone, 5 patients, raw data): 383 ng/mL
concentration at 0.5 h (clinical [3]; 50 mg, Patient 1, dose 50 mg): 118 ng/mL
concentration at 1 h (clinical [3]; 50 mg, Patient 1, dose 50 mg): 424 ng/mL
concentration at 2 h (clinical [3]; 50 mg, Patient 1, dose 50 mg, 2 HR): 383 ng/mL
concentration at 4 h (clinical [3]; 50 mg, Patient 1, dose 50 mg, 4 HR): 209 ng/mL
concentration at 6 h (clinical [3]; 50 mg, Patient 1, dose 50 mg): 112 ng/mL
concentration at 0.5 h (clinical [3]; 50 mg, Patient 2, dose 50 mg): 52.8 ng/mL
concentration at 1 h (clinical [3]; 50 mg, Patient 2, dose 50 mg): 49.8 ng/mL
concentration at 2 h (clinical [3]; 50 mg, Patient 2, dose 50 mg, 2 HR): 127 ng/mL
concentration at 4 h (clinical [3]; 50 mg, Patient 2, dose 50 mg, 4 HR): 237 ng/mL
concentration at 6 h (clinical [3]; 50 mg, Patient 2, dose 50 mg): 122 ng/mL
concentration at 0 h (clinical [3]; 50 mg, Patient 2, dose 50 mg, PREDOSE): 66.7 ng/mL
concentration at 0.5 h (clinical [3]; 50 mg, Patient 3, dose 50 mg): 92.4 ng/mL
concentration at 1 h (clinical [3]; 50 mg, Patient 3, dose 50 mg): 118 ng/mL
concentration at 2 h (clinical [3]; 50 mg, Patient 3, dose 50 mg, 2 HR): 110 ng/mL
concentration at 4 h (clinical [3]; 50 mg, Patient 3, dose 50 mg, 4 HR): 78.2 ng/mL
concentration at 6 h (clinical [3]; 50 mg, Patient 3, dose 50 mg): 71.7 ng/mL
concentration at 0 h (clinical [3]; 50 mg, Patient 3, dose 50 mg, PREDOSE): 34.4 ng/mL
concentration at 0.5 h (clinical [3]; 50 mg, Patient 5, dose 50 mg): 137 ng/mL
concentration at 1 h (clinical [3]; 50 mg, Patient 5, dose 50 mg): 355 ng/mL
concentration at 2 h (clinical [3]; 50 mg, Patient 5, dose 50 mg, 2 HR): 369 ng/mL
concentration at 4 h (clinical [3]; 50 mg, Patient 5, dose 50 mg, 4 HR): 268 ng/mL
concentration at 6 h (clinical [3]; 50 mg, Patient 5, dose 50 mg): 166 ng/mL
concentration at 0 h (clinical [3]; 50 mg, Patient 5, dose 50 mg, PREDOSE): 149 ng/mL
concentration at 0 h (clinical [3]; Max, 0 hr, after dosing of enoximone, 5 patients, raw data): 149 ng/mL
concentration at 4 h (clinical [3]; Max, 4 hrs, after dosing of enoximone, 5 patients, raw data): 268 ng/mL
concentration at 8 h (clinical [3]; Max, after dosing of enoximone, 5 patients, raw data): 166 ng/mL
concentration at 0 h (clinical [3]; Min, 0 hr, after dosing of enoximone, 5 patients, raw data): 7.95 ng/mL
concentration at 2 h (clinical [3]; Min, 2 hrs, after dosing of enoximone, 5 patients, raw data): 63.6 ng/mL
concentration at 4 h (clinical [3]; Min, 4 hrs, after dosing of enoximone, 5 patients, raw data): 44 ng/mL
concentration at 8 h (clinical [3]; Min, after dosing of enoximone, 5 patients, raw data): 20.7 ng/mL
concentration at 0 h (clinical [4]; Max): 150 ng/mL
concentration at 2 h (clinical [4]; Max): 400 ng/mL
concentration at 4 h (clinical [4]; Max): 200 ng/mL
concentration at 8 h (clinical [4]; Max): 150 ng/mL
concentration at 0 h (clinical [4]; Min): 0 ng/mL
concentration at 2 h (clinical [4]; Min): 20 ng/mL
concentration at 4 h (clinical [4]; Min): 15 ng/mL
concentration at 8 h (clinical [4]; Min): 0 ng/mL
plasma concentration (Patient 1, dose 50 mg, PREDOSE): 69.7 ng/mL
plasma concentration (Patient 4, dose 25 mg, HR ALIQUOT 1 (between 0.5 HR and 2 HR)): 65.8 ng/mL
solubility [5]: Limited solubility
